Test results published in patent US6488943B1, “Antimicrobial wipes which provide improved immediate germ reduction” (The Procter & Gamble Company, priority 1999, dated 2002).

Test system: Vibrio fischerio
Experiment: Microtox Response Test (bioluminescence of Microtox Acute Toxicity Reagent)
Format: cell-based
Settings: pure anionic surfactant; EC50 for 50% decrease of bioluminescence, 5 minutes
Method: Reference: Microtox Manual: A Toxicity Testing Handbook, 1992 Volume I-IV; Microbics Corporation.
Equipment: Microtox M500 Toxicity Testing Unit; Microbics Corporation Connected to computer for data acquisition and analysis according to above reference.
1. Preparation of Sample Stock Solution (Standard Concentration: 1000 ppm)
The stock solution of the test anionic surfactant sample is prepared and used as a stock solution from which all other dilutions are made. The standard “starting concentration”, the highest concentration to be tested, is 500 ppm. […]
a) Turn on test unit and allow reagent well temperature to equilibrate at 5.5° C. and incubator block and read well temperature to equilibrate at 15° C. […]
c) Place the assay cuvette containing reagent which corresponds to the test blank into the read well and press SET. After the cuvette has resurfaced press READ and the value will be captured by the computer.
d) Similarly read the remaining 7 cuvettes containing reagent when prompted by the computer by pressing the READ button with the correct cuvette in the READ well.
e) After all 8 initial reading have been taken, transfer 500 μl of the diluted test substance into their corresponding cuvette containing the reagent. […]

Compound | Microtox Index
CCCCCCCCCCCCOS(=O)(=O)O.N [ammonium lauryl sulfate] | 1.0 ppm
ammonium laureth-3 sulfate | 120 ppm
